In one data set the test system is H460 tumor xenograft. In words: H460 tumor xenograft mouse model. The class given is in vivo, Balb/c nude mice. The following applies: H460 xenograft mice. The procedure: The effect of the combined administration of the mixed extract of the present invention and docetaxel was investigated in an animal model. All procedures of animal experimentation, including maintenance and euthanasia, were approved by Kyung Hee University Institutional Animal Care and Use Committee (KHU-IACUC-KHSASP-21-211). Five-week-old male Balb/c nude mice were purchased from Nara Biotech (Seoul, Republic of Korea) and acclimated to a 12-h light/dark cycle at 22-23° C. and 40-60% humidity. The mice were divided into four groups: control (n=3), SH003 administration (n=4), DTX administration (n=4), and combined administration (n=5). In order to establish a tumor xenograft mouse model, H460 cell suspension (1×10^7 cells) in 100 μL PBS was subcutaneously inoculated into the right flank of the mice. Thereafter, 200 μL of SH003 (557.569 mg/kg) was administered orally three times a week, and 50 μL DTX (15.277 mg/kg) was administered intravenously via the tail vein once a week for 3 weeks. Saline and DMSO were used as vehicles. The body weight was measured three times a week, and tumor volume was analyzed daily. On day 21, the mice were sacrificed using carbon dioxide and cervical dislocation was performed. Tumor tissues were isolated after euthanasia. […]

Data set [1] has as its system MDA-MB-231 (TNBC, highly metastatic). Briefly: MTT assay, viability and combination index in MDA-MB-231 cells. The class given is cell-based. The note with it: 24 hours, SH003 100, 300, 500 μg/mL, DTX 1, 10, 100, 1000 nM. Background: Tetrazolium assays rely on reduction of a dye to a coloured formazan, in cell work by metabolically active cells.
Experimental: (§3) Thereafter, a 3-(4,5-Dimethylthiazol-2-yl)-2,5-diphenyltetrazolium bromide (MTT) reagent was treated in each cell, the cells were further incubated for 4 hours, and then a supernatant was removed and 100 μL of dimethyl sulfoxide (DMSO) was added. Finally, absorbance was measured at a wavelength of 590 nm and the absorbance value was compared with a control group which was not treated with any material.
Fa indicates the inhibition rate.
In data set [2] the test system is A549 non-small cell lung cancer cell line. Briefly: WST colorimetric assay, viability in A549 cells. The class given is cell-based. The following applies: 24, 48 and 72 hours.
Experimental: Specifically, a total of 10^5 cells per well were seeded in a 6-well plate before treatment. After 24 hours, the cells were treated with SH003 (100, 300, and 500 μg/mL), DTX (1, 10, 100, and 1000 nM), or a combination thereof for 24, 48, and 72 hours. […] After treatment, the cells were incubated with WST for 1 hour, and then the absorbance was measured at 450 nm using an ELISA reader (Molecular Devices, Palo Alto, CA, USA).
A further data set deals with BT-20 tumor xenograft. Briefly: BT-20 tumor xenograft mouse model. The class given is in vivo, BALB/c nude mice. The note with it: BT-20 xenograft mice. The method, then: The effect of the combined administration of the mixed extract of the present invention and docetaxel was investigated in an animal model. All animal studies were approved by Kyung Hee University-Institutional Animal Care & Use Committee (KHU-IACUC). Five-week-old female BALB/c nude mice were purchased from Nara Biotech (Seoul, Republic of Korea). The mice were allowed free access to food and water and were housed in appropriate isolation cages at room temperature (22-25° C.) under a 12-h light/12-h dark cycle in the absence of pathogens. In order to establish a tumor xenograft mouse model, BT-20 cell suspension (1×10^7 cells) in 100 μL PBS was subcutaneously inoculated into the right flank of the mice. The mice were divided into four groups: control group (n=3), SH003 (n=4), DTX (n=4), and SH003+DTX (n=5). When the tumor volume reached 100 mm^3, the drug was injected. DTX was administered intravenously via the tail vein once a week at 15.277 mg/kg, while DMSO was administered to the control or SH003 single-administration group. SH003 was administered orally at 557.569 mg/kg three times a week, while saline was administered to the control or DTX single-administration group. The body weight was measured three times a week, and tumor volume was analyzed daily for 17 days.
Subsequently, the mice were euthanized and the tumors were isolated. […]

For a further data set, the system named is H460 cells. Briefly: Annexin V/7-AAD apoptosis in H460 cells. The following applies: 24 hours. Type of data set: cell-based. The method, then: (§1) In order to investigate the effect of increasing apoptosis by combined administration of the mixed extract of the present invention and docetaxel, Annexin V/7-AAD double staining was used for analysis.
(§2) Specifically, H460 and A549 cells were stained with Annexin V and then stained with 7-AAD in the dark for 15 minutes at room temperature, and then the stained cells were detected by FACSCalibur (BD Biosciences, San Jose, CA, USA), and the apoptotic cells were analyzed using CellQuest Pro version 5.2 (BD Biosciences, San Jose, CA, USA) software. The results are illustrated in FIG. 3.

The subject of data set [3] is H460 non-small cell lung cancer cell line. Briefly: WST colorimetric assay, viability and combination index in H460 cells. Type of data set: cell-based. The note with it: 24, 48 and 72 hours.
Experimental: Specifically, a total of 10^5 cells per well were seeded in a 6-well plate before treatment. […] After treatment, the cells were incubated with WST for 1 hour, and then the absorbance was measured at 450 nm using an ELISA reader (Molecular Devices, Palo Alto, CA, USA).
Fa indicates the inhibition rate.
In data set [4] the test system is BT-20 (TNBC, triple-negative breast cancer, non-invasive). In words: MTT assay, viability and combination index in BT-20 cells. Type of data set: cell-based. The note with it: 24 hours, SH003 100, 300, 500 μg/mL, DTX 1, 10, 100, 1000 nM.
Experimental: as §3
Fa indicates the inhibition rate.
The test system of data set [5] is gastric cancer cell line AGS. Briefly: Cell survival rate and combination index in AGS cells. Type of data set: cell-based.
The next data set relates to A549 cells. Briefly: Annexin V/7-AAD apoptosis in A549 cells. The note with it: 24 hours. The class given is cell-based. The method, then: as §1, §2

The source of these data is patent US20260048093A1, “COMBINATION THERAPY OF MIXED HERBAL EXTRACT AND DOCETAXEL FOR PREVENTING OR TREATING CANCER” (JAEIN R&P INC., priority 2022, published 2026).

For the compound `CC(=O)O[C@@]12CO[C@@H]1C[C@H](O)[C@@]1(C)C(=O)[C@H](O)C3=C(C)[C@@H](OC(=O)[C@H](O)[C@@H](NC(=O)OC(C)(C)C)c4ccccc4)C[C@@](O)([C@@H](OC(=O)c4ccccc4)[C@H]21)C3(C)C` [DTX, Docetaxel], the body weight entry in the data set on H460 tumor xenograft and with BT-20 tumor xenograft was “did not have an effect” in each case. The “viability of MDA-MB-231 cells” value in data set [1] is “decreased the viability”. Besides, the A549 cell growth entry in [2] is recorded as “inhibited A549 cell growth in a dose-dependent manner”. The “apoptosis compared to the control group (in words)” value with H460 cells and with A549 cells was “did not significantly affect” throughout. Further, the H460 cell growth entry in data set [3] is given as “inhibited H460 cell growth in a dose-dependent manner”. The “viability of BT-20 cells” value in data set [4] is listed as “decreased the viability”. For the same compound, the “AGS cell survival rate” value in [5] is on record as “decreased in a concentration-dependent manner”.
